In ChEMBL document CHEMBL1127882, “Synthesis of coumarins as subtype-selective inhibitors of monoamine oxidase” (Bioorg Med Chem Lett, 1994):
pIC50: −log10 of the molar value.

How the values were obtained:
[1] = molecular target: T1, Amine oxidase [flavin-containing] A (Rattus norvegicus, UniProt P21396); assay: In vitro inhibitory against monoamine oxidase A (MAO-A) in rat brain homogenate.; type: tissue-based
T1 sequence (P21396 whole entry): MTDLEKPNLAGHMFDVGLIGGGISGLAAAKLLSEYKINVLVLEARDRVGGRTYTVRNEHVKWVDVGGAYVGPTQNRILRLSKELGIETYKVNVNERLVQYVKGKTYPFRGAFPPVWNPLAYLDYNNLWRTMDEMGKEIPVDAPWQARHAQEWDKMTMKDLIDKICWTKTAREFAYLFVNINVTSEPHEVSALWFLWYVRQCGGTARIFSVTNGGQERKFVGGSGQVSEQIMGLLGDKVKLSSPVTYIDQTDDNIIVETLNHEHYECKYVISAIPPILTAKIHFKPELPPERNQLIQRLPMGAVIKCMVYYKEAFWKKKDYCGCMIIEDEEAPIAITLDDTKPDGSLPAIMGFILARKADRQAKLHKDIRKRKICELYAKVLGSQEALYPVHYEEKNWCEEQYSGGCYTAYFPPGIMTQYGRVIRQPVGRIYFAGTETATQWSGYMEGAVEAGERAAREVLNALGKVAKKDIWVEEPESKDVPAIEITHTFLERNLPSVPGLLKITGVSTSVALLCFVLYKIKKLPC

[2] = molecular target: T2, Amine oxidase [flavin-containing] B (Rattus norvegicus, UniProt P19643); assay: In vitro inhibitory activity against monoamine oxidase B (MAO-B) in rat brain homogenate.; type: tissue-based
T2 sequence (P19643 whole entry): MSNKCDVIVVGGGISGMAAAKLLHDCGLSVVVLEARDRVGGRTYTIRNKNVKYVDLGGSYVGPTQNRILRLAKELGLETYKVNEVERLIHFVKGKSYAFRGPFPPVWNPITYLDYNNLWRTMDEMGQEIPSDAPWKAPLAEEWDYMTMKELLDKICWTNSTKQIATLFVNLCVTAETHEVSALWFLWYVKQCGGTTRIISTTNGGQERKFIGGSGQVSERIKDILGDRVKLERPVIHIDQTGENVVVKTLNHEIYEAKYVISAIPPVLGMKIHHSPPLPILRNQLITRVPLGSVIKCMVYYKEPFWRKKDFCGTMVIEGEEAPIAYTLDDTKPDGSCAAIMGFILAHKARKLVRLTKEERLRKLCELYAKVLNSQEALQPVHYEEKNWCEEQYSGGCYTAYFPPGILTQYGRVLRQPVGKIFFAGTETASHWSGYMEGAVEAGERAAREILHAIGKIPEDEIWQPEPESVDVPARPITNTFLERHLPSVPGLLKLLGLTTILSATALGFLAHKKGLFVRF

Row | SMILES | pIC50 [1] | pIC50 [2]
1 | Cc1nnc(COc2ccc3c(C)c(C)c(=O)oc3c2)o1 | 5.25 | 7.82
2 | Cc1c(C)c2ccc(O)cc2oc1=O | ~5.00 | < 5.00
3 | Cc1c(C)c2ccc(OCc3cc(C4CC4)on3)cc2oc1=O | 5.15 | 9.10
4 | Cc1c(C)c2ccc(OCc3csc(C(C)C)n3)cc2oc1=O | 5.00 | 8.85
5 | Cc1c(C)c2ccc(OCc3ccc(C(C)C)cc3)c(C)c2oc1=O | < 5.00 | < 5.00
6 | Cc1c(C)c2ccc(OCc3nnc(C(C)C)s3)cc2oc1=O [ATIBEPRONE] | < 5.00 | 9.05
7 | Cc1c(C)c2ccc(OC(C)c3ccc(C(C)C)cc3)cc2oc1=O (stereo not given) | < 5.00 | 5.00
8 | COc1cc(Br)c2oc(C3CCNCC3)cc2c1 [BROFAROMINE] | 8.30 | 
9 | Cc1c(C)c2ccc(OCc3nc(C(C)C)no3)cc2oc1=O | < 5.00 | 
10 | Cc1c(C)c2ccc(OCc3ccccn3)cc2oc1=O | 5.74 | 8.05

Further lines, results first:

Row | pIC50 [1] | pIC50 [2] | SMILES
11 | 7.15 | 9.30 | COc1ccc2c(C)c(C)c(=O)oc2c1
12 |  | 5.30 | CCS(=O)(=O)Oc1ccc2c(C)c(C)c(=O)oc2c1 [ESUPRONE]
13 |  | < 5.00 | Cc1c(C)c2ccc(OS(C)(=O)=O)cc2oc1=O
14 |  | < 5.00 | CCCCCCCCS(=O)(=O)Oc1ccc2c(C)c(C)c(=O)oc2c1
15 | 7.80 | 5.66 | CCCCCS(=O)(=O)Oc1ccc2c(C)c(C)c(=O)oc2c1
